Source: PMC5587747, “A natural chalcone induces apoptosis in lung cancer cells: 3D-QSAR, docking and an in vivo/vitro assay” (Scientific Reports, 2017)
Read-outs that look alike come from different tables or passages of the source.

Columns and labels:
H292 cells = assay: MTT cytotoxicity assay, H292 cells; format: cell-based, human
Description: (§1) The cytotoxicities of the tested flavonoids were assayed in ten human lung cancer cell lines (A549, H226, H358, H522, H292, H1944, H460, H1792, SW1573, and Calu-1) using MTT reduction assay. Cisplatin (DDP) was selected as a positive control. Compounds 1–37 were dissolved in DMSO to obtain a clear solution of 1 M, which was diluted to 400 mM, 200 mM, 100 mM, 75 mM, 50 mM, 37.5 mM, 25 mM, 10 mM and 1 mM respectively as stock solutions. The DMSO concentration in the medium was kept below 0.10%. Moreover, the stability of tested compounds in experimental buffer was confirmed at 24 h and 48 h respectively by means of HPLC analysis. Then the human lung cancer cells were placed in 96-well culture plates (5 × 10^4 cells/well) and incubated for 24 h. Then, the cells were pretreated with different concentrations of test samples (gradient concentrations 1.0, 10.0, 25.0, 37.5, 50, 75, 100, 200, 400, 1000 μM for compounds 1–37 and DDP) for 48 h. And cell growth was measured by MTT assays. The cytotoxicities against the lung cancer cells were determined systematically and expressed as IC50 value.

S180-bearing mice = assay: In vivo antitumor activity in S180 implanted mice; settings: 25 mg/kg oral daily, 12 days
Description: The animal experiments were carried out according to the National Institute of Health Guide for the Care and Use of Laboratory Animals. And the use of experimental animals was approved by the Animal Ethics Committee of Shenyang Pharmaceutical University. Male Kunming mice, were housed in separate cages under standard conditions (20–24 °C), relative humidity (55% ± 5%) and a 12 h light/12 h dark cycle, and allowed to acclimatize for 3 days prior to the start of experiment. Cultured S180 cells were harvested and washed with sterilized PBS (pH 7.2) three times and resuspended at a density of 6 × 10^6 cells/ml. Mice received subcutaneous implants of 0.2 mL/mouse on the right flank by means of hypodermic injection. Then the mice were divided randomly into 5 groups, including model, positive control and treatment groups with 10 mice in each group after inoculation for 24 h. […] Both groups received oral administrations via an intubation needle every day. […] The weight of the mice was recorded every day throughout the experiment. Finally, the mice were sacrificed by cervical dislocation just 2 h after the last administration. Then the tumor and spleen tissues were harvested and weighed immediately. After that the in vivo tumor inhibition ratio was calculated as: Inhibition ratio (%) = 100((A−B)/A), in which A represents the average tumor weight of the control group and B is recorded as the tumor weight of the administration group. Then, the spleen index was recorded using the following formula:
Spleen index = the final weight of spleen (mg)/the final average body weight (g) without tumor.

H226 = assay: MTT cytotoxicity assay, H226 cells; format: cell-based, human; settings: DDP 10 μM
Description: as §1

H522 = assay: MTT cytotoxicity assay, H522 cells; format: cell-based, human; settings: DDP 10 μM
Description: as §1

H1944 = assay: MTT cytotoxicity assay, H1944 cells; format: cell-based, human; settings: DDP 10 μM
Description: as §1

H1792 = assay: MTT cytotoxicity assay, H1792 cells; format: cell-based, human; settings: DDP 10 μM
Description: as §1

H358 = assay: MTT cytotoxicity assay, H358 cells; format: cell-based, human; settings: DDP 10 μM
Description: as §1

Calu-1 = assay: MTT cytotoxicity assay, Calu-1 cells; format: cell-based, human; settings: DDP 10 μM
Description: as §1

SW1573 = assay: MTT cytotoxicity assay, SW1573 cells; format: cell-based, human; settings: DDP 10 μM
Description: as §1

H460 = assay: MTT cytotoxicity assay, H460 cells; format: cell-based, human; settings: DDP 10 μM
Description: as §1

A549 = assay: MTT cytotoxicity assay, A549 cells; format: cell-based, human; settings: DDP 10 μM
Description: as §1

[1] = Homo sapiens, NCI-H292, H292 cells, MTT, 48 h, Table S2, read-out: IC50
[2] = Homo sapiens, NCI-H292, H292 cells, Table S2, read-out: pIC50 (converted)
[3] = Homo sapiens, NCI-H292, H292 cells, MTT, 48 h, read-out: IC50

| Compound | IC50 (H292 cells; [1]) | IC50 (H292 cells; [2]) | also measured |
| --- | --- | --- | --- |
| O=c1cc(-c2cccc(O)c2)oc2c1ccc1occc12 [Compound 14, isopongaglabol] | 630 µM | 630 µM |  |
| COc1ccc(-c2coc3c(O)c(OC)ccc3c2=O)cc1 [Compound 33] |  | 216 µM | IC50 (H292 cells; [3]): 216 µM |
| COc1c2ccoc2cc2oc(-c3ccccc3)cc(=O)c12 [Compound 20] | > 1000 µM | > 1000 µM |  |
| COc1ccc(-c2coc3c(O)c(O)ccc3c2=O)cc1O [Compound 30] | 501 µM | 501 µM |  |
| COc1ccc(-c2coc3cc(O)ccc3c2=O)cc1 [Compound 27] | > 1000 µM | > 1000 µM |  |
| COc1ccc(O)cc1-c1oc2c(ccc3occc32)c(=O)c1OC [Compound 18] | > 1000 µM | > 1000 µM |  |
| COc1cc(OC)c(Cl)c(-c2cc(=O)c3ccc4occc4c3o2)c1Cl [Compound 1] | 490 µM | 490 µM |  |
| COc1cc(O)cc(-c2oc3c(ccc4occc43)c(=O)c2OC)c1 [Compound 19] | > 1000 µM | > 1000 µM |  |
| CC1(C)C=Cc2c(ccc3c2O[C@H](c2ccccc2)CC3=O)O1 [Compound 36] |  | 50 µM | IC50 (H292 cells; [3]): 50 µM |
| O=c1c(-c2ccc3c(c2)OCO3)coc2cc(O)ccc12 [Compound 29] | 1000 µM | 1000 µM |  |
| CC1(C)C=Cc2c(ccc(C(=O)/C=C/c3ccc4c(c3)OCO4)c2O)O1 [Compound 35] |  | 61.5 µM | IC50 (H292 cells; [3]): 61.5 µM |
| O=c1cc(-c2ccccc2)oc2c1cc(O)c1occc12 [Compound 8] | 750 µM | 750 µM |  |
| COc1cc(O)cc(-c2coc3cc(O)ccc3c2=O)c1 [Compound 31] | > 1000 µM | > 1000 µM |  |
| COc1cc2c(=O)cc(-c3ccccc3)oc2c2ccoc12 [Compound 9, 6-hydroxy,3-methoxyfuro[8,7:4′′,5′′]flavone] | 975 µM | 975 µM |  |
| COc1c(-c2ccc3c(c2)OCO3)oc2c3c(ccc2c1=O)OC(C)(C)C=C3 [Compound 12, pongapinnol-C] |  | 100 µM | IC50 (H292 cells; [3]): 100 µM |
| COc1ccc2c(=O)c(OC)c(-c3ccc(OC)c(OC)c3)oc2c1 [Compound 25] | 1000 µM | 1000 µM |  |
| O=P1(N(CCCl)CCCl)NCCCO1 (stereo not shown) [CTX, Cyclophosphamide, reference compound] |  |  | Body weight/g After experiment (S180-bearing mice): 28.09 ± 0.56 g; Body weight/g Before experiment (S180-bearing mice): 35.97 ± 0.89 g; Inhibitory rate (%) (S180-bearing mice): 80.75%; Tumor weight/g (S180-bearing mice; mean ± SE): 1.55 ± 0.30 g |

| Compound | IC50 (H292 cells; [1]) | IC50 (H292 cells; [2]) | also measured |
| --- | --- | --- | --- |
| COc1cccc(-c2cc(=O)c3ccc4occc4c3o2)c1 [Compound 13] | 615 µM | 615 µM |  |
| O=c1cc(-c2ccccc2)oc2c1c(O)cc1occc12 [Compound 3, kanjone] | > 1000 µM | > 1000 µM |  |
| COc1c(-c2ccccc2)oc2c(ccc3occc32)c1=O [Compound 10] | 794 µM | 794 µM |  |
| O=c1cc(-c2ccc3c(c2)OCO3)oc2c1ccc1occc12 [Compound 6] | > 1000 µM | > 1000 µM |  |
| O=c1cc(-c2ccc(O)cc2)oc2c1ccc1occc12 [Compound 4] | 705 µM | 705 µM |  |
| COc1c2ccoc2cc2oc(-c3ccc4c(c3)OCO4)cc(=O)c12 [Compound 22] | > 1000 µM | > 1000 µM |  |
| N.N.[Cl][Pt][Cl] [DDP, Cisplatin, reference compound] |  |  | inhibition rate (IR %) (H226): 87.4%; inhibition rate (IR %) (H522): 69.6%; inhibition rate (IR %) (H1944): 40.4%; inhibition rate (IR %) (H1792): 44.6%; inhibition rate (IR %) (H358): 81.2%; inhibition rate (IR %) (Calu-1): 59.1%; inhibition rate (IR %) (SW1573): 69.4%; inhibition rate (IR %) (H460): 89.1%; inhibition rate (IR %) (H292 cells; H292, DDP 10 μM): 91.3%; inhibition rate (IR %) (A549): 76.4% |
| COc1ccc(-c2coc3cc(CC=C(C)C)ccc3c2=O)cc1 [Compound 26] |  | 294 µM | IC50 (H292 cells; [3]): 294 µM |
| COc1ccc(OC)c(-c2cc(=O)c3ccc4occc4c3o2)c1 [Compound 16] | 374 µM | 374 µM |  |
| COc1ccc(-c2coc3c(OC)c(O)ccc3c2=O)cc1 [Compound 32] | 776 µM | 776 µM |  |
| CC1(C)C=Cc2c(ccc3c2O[C@H](c2ccc4c(c2)OCO4)CC3=O)O1 [Compound 37] |  | 61.5 µM | IC50 (H292 cells; [3]): 61.5 µM |
| COc1c(-c2ccccc2)oc2c(cc(O)c3occc32)c1=O [Compound 11, demethylate kanjone] | > 1000 µM | > 1000 µM |  |
| genistein [Compound 21] |  |  | IC50 (H292 cells; H292 cells, MTT, 48 h, Table S2, read-out: IC50): > 1000 µM; pIC50 (H292 cells; H292 cells, Table S2): < 3.000 |
| COc1ccc2c(=O)c(OC)c(-c3ccc4c(c3)OCO4)oc2c1 [Compound 24] | 394 µM | 394 µM |  |
| O=c1c(-c2ccc(O)cc2)coc2cc(O)cc(O)c12 [Compound 28] | 631 µM | 631 µM |  |
| COc1cc(OC)cc(-c2cc(=O)c3ccc4occc4c3o2)c1 [Compound 15] |  | 158 µM | IC50 (H292 cells; [3]): 158 µM |
